Test system: 242566-281-R-J2-PDC complex spheroid viability
Experiment: Anticancer human tumor 242566-281-R-J2-PDC patient-derived pancreatic carcinoma cell line growth inhibition [RAS]
Conditions: for IC50: curve of first compound; for viability, T/C: stronger effect = lower value; active = viability on the fitted dose curve at most 10% of control; inactive = the rest
Text: RAS pathway inhibitors in Combinations in Complex Spheroids
A high-throughput screen of multi-cell type tumor spheroids was designed to identify active combinations of RAS pathway inhibitors and targeted small molecules. Complex spheroids include a stromal component modeled by human endothelial cells (HUVEC) and fibroblasts modeled by human mesenchymal stem cells (MSCs). The concentration ranges selected for each drug and investigational agent were based upon clinically achievable concentrations if the clinical Cmax of the agent was known.
Compounds. The drugs and investigational agents: abemaciclib (NSC768073), cobimetinib (NSC768068), divarasib (GDC6063, NSC841802), docetaxel (NSC628503), GDC-1971 (RLY-1971, NSC841576), gemcitabine (NSC613327), inavolisib (NSC800729), ipatasertib (NSC767898), KB-0742 (NSC834161), MRTX-1133 (NSC836407), osimertinib (NSC779217), RMC-4630 (NSC839698), RMC-6236 (NSC851965), RMC-6291 (NSC852671), Ro-3306 (NSC812927), sapanisertib (NSC764658), SN-38 (NSC673596), staurosporine (NSC755774), SY5609 (NSC837396), and tovorafenib (DAY101, NSC766906), were obtained from the National Cancer Institute (NCI) Developmental Therapeutics Program Chemical Repository. The FDA-approved anticancer drug set is available from the NCI Developmental Therapeutics Program. […] The stock solutions were prepared in dimethyl sulfoxide (DMSO, Sigma-Aldrich, St. Louis, MO, cat. D2650) at 800-fold the tested concentration and stored at -70 degrees C prior to their use. All drugs and investigational agents were tested over a range starting from a high concentration at or near the clinical Cmax and decreasing in half-log increments. If the clinical Cmax for an agent had not been determined, the highest concentration tested was 10 microM.
Cell Culture. All cells were maintained in an incubator at 37 degrees C and 5% CO2 with 95% humidity. The PDC lines were cultured according to standard operating procedures established by the NCI PDMR. All PDCs were thawed and cultured in Matrigel-coated flasks prepared with a working solution of 1X Ham's F-12 nutrient mix, without supplementation (Invitrogen, Waltham, MA, cat. 11765054), 100 U/mL penicillin-streptomycin (Invitrogen, cat. 15140122), and 2.5% Matrigel (Corning Inc., Corning, NY, cat. 354248) for the first three passages. The 362531-283-R-J2-PDC and 782815-120-R-J1-PDC lines were cultured in 6C/Colon 1B media, which includes advanced DMEM/F-12 (Thermo Fisher Scientific, cat. 12634028), 10 mM HEPES (Thermo Fisher Scientific, cat. 15630080), 1X GlutaMAX supplement (Thermo Fisher Scientific, cat. 35050061), 0.1 mg/mL primocin (InvivoGen, San Diego, CA, cat. ant-pm-2), 10% defined fetal bovine serum, heat inactivated (HyClone Laboratories Inc., Logan, UT, cat. SH30070.03HI), 50% L-WRN conditioned media (ATCC, cat. CRL-3276), 1.25 mM N-Acetyl-L-cysteine (Sigma-Aldrich, cat. A9165), 10 mM nicotinamide (Sigma-Aldrich, cat. N0636), 1X B-27 supplement (Thermo Fisher Scientific, cat. 17504044), 1X N-2 supplement (Thermo Fisher Scientific, cat. 17502048), 50 ng/mL human EGF (Thermo Fisher Scientific, cat. PHG0311), and 10 microM Y-27632 dihydrochloride (Tocris Bioscience, cat. 1254). The K12877-001-R-J1-PDC line was cultured in 6I media, which includes all 6C/Colon 1B media plus 10 ng/mL human FGF-10 (PeproTech, cat. 100-26), 1 ng/mL human FGF-2 (PeproTech, cat. 100-18B), 1 µM prostaglandin E2 (Tocris Bioscience, cat. 2296), […] hydrocortisone (Sigma-Aldrich, cat. H4001), and […] bovine insulin (Sigma-Aldrich, cat. I6634). The K86415-001-R-J1-PDC line was cultured in 6D media, which includes all 6C/Colon 1B media components minus the L-WRN conditioned media. The 485176-168-R4-J1-PDC was cultured in PANC media, which includes all 6C/Colon 1B media plus 100 ng/mL human FGF-10 (PeproTech, cat. 100-26), 500 nM SB-431542 (Selleckchem, cat. S1067), and 10 nM gastrin (Tocris Bioscience, cat. 3006). […]
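Also: spheroids exposed to compound for 7 days before readout.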
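For viability, T/C in this document: 100% = DMSO vehicle control wells.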

CC1(O)CCCC1n1c(=O)c(C(F)F)cc2cnc(NC3CCN(S(C)(=O)=O)CC3)nc21 (configuration not stated) + C#Cc1c(F)ccc2cc(O)cc(-c3ncc4c(N5CC6CCC(C5)N6)nc(OCC56CCCN5CC(F)C6)nc4c3F)c12
inactive: viability, T/C (second compound 0.0316 µM, first compound 0.0316 µM) 90.6% | viability, T/C (second compound 0.0316 µM, first compound 0.1 µM) 113% | viability, T/C (second compound 0.0316 µM, first compound 0.316 µM) 94.6% | viability, T/C (second compound 0.0316 µM, first compound 1 µM) 81.5% | viability, T/C (second compound 0.0316 µM, first compound 3.16 µM) 108% | viability, T/C (second compound 0.0316 µM, first compound 10 µM) 51.5% | viability, T/C (second compound 0.1 µM, first compound 0.0316 µM) 80.4% | viability, T/C (second compound 0.1 µM, first compound 0.1 µM) 83.9% | viability, T/C (second compound 0.1 µM, first compound 0.316 µM) 78.7% | viability, T/C (second compound 0.1 µM, first compound 1 µM) 88% | viability, T/C (second compound 0.1 µM, first compound 3.16 µM) 97.6% | viability, T/C (second compound 0.1 µM, first compound 10 µM) 45.7% | viability, T/C (second compound 0.316 µM, first compound 0.0316 µM) 69.3% | viability, T/C (second compound 0.316 µM, first compound 0.1 µM) 75.5% | viability, T/C (second compound 0.316 µM, first compound 0.316 µM) 60.7% | viability, T/C (second compound 0.316 µM, first compound 1 µM) 69.8% | viability, T/C (second compound 0.316 µM, first compound 3.16 µM) 94.6% | viability, T/C (second compound 0.316 µM, first compound 10 µM) 38.9% | viability, T/C (second compound 1 µM, first compound 0.0316 µM) 66.3% | viability, T/C (second compound 1 µM, first compound 0.1 µM) 63.2% | viability, T/C (second compound 1 µM, first compound 0.316 µM) 65.4% | viability, T/C (second compound 1 µM, first compound 1 µM) 56.6% | viability, T/C (second compound 1 µM, first compound 3.16 µM) 70.5% | viability, T/C (second compound 1 µM, first compound 10 µM) 27.5% | viability, T/C (second compound 3.16 µM, first compound 0.0316 µM) 51% | viability, T/C (second compound 3.16 µM, first compound 0.1 µM) 54.6% | viability, T/C (second compound 3.16 µM, first compound 0.316 µM) 48% | viability, T/C (second compound 3.16 µM, first compound 1 µM) 49.1% | viability, T/C (second compound 3.16 µM, first compound 3.16 µM) 69% | viability, T/C (second compound 3.16 µM, first compound 10 µM) 29.7% | viability, T/C (second compound 10 µM, first compound 0.0316 µM) 52.3% | viability, T/C (second compound 10 µM, first compound 0.1 µM) 57.2% | viability, T/C (second compound 10 µM, first compound 0.316 µM) 61% | viability, T/C (second compound 10 µM, first compound 1 µM) 56% | viability, T/C (second compound 10 µM, first compound 3.16 µM) 66.8% | viability, T/C (second compound 10 µM, first compound 10 µM) 19.5%
3.87 µM: IC50 (second compound 3.16 µM)
8.85 µM: IC50 (second compound 0.1 µM)
6.91 µM: IC50 (second compound 0.316 µM)
4.08 µM: IC50 (second compound 10 µM)
4.97 µM: IC50 (second compound 1 µM)
> 10 µM: IC50 (second compound 0.0316 µM)
